Assay results published in US6229055A, “Synthesis of fluorinated xanthene derivatives” (Molecular Probes, Inc., priority 2000, dated 2001).

Legend:
[1] = Spectral properties of selected fluorinated fluoresceins and rhodols; format: physicochemical; conditions: for Abs.: absorption maximum; for Em.: emission maximum; for ε × 10^-3: extinction coefficient, value is ε × 10^-3; for Quantum Yield: fluorescence quantum yield
[2] = Photodecomposition on illumination in fluorometer; format: physicochemical; conditions: % of decreased fluorescence intensity after 33 minutes of illumination in fluorometer at wavelength of maximum excitation
Experimental: *% of decreased fluorescence intensity after 33 minutes of illumination in
fluorometer at wavelength of maximum excitation

[3] = pH titration of fluorophores (pKa)
Experimental: The dye of interest is first dissolved in a series of buffers that have each been calibrated using a pH meter. Acetate buffers are typically used in the range of pH 46, and phosphate buffers in the pH range 68. Absorption measurements are made using solutions that are approximately 10 1M in concentration, and fluorescence measurements are made using solutions that are approximately 1 μM in concentration. The absorption or emission data is then plotted versus pH to determine pKa values.

[4] = system: ATP-dependent dye efflux mechanisms in lymphoid-B cell lines; test: Dye efflux from labeled cells with and without verapamil or probenecid, flow cytometry; format: cell-based
Experimental: Identical batches of lymphoid-B cell lines cells are separately incubated with […] solutions of 4,5,6,7-tetrafluorofluorescein diacetate (Compound 25), 2',7'-dichloro4,5,6,7-tetrafluorofluorescein diacetate (Compound 28), 2',4,5,6,7,7'-hexafluorofluorescein diacetate ([…]) and 2',4',5',7'-tetrafluorofluorescein diacetate. To one set of each cells is added 100 μM verapamil and to another 1 mM probenecid, both of which are known to block ATP-dependent dye efflux mechanisms, as found in multidrug resistant of cells. Without washing, the cells are analyzed for brightness by flow cytometry using 488-nm excitation.

[5] = system: rabbit polyclonal anti-fluorescein IgG (H+L) fraction; test: Fluorescence quenching by anti-fluorescein antibody; format: binding; conditions: 5×10^-9 M dye
Experimental: Solutions of 5×10^-9 M fluorescein and 5×10^-9 M 2',7'-difluorofluorescein (Compound 29) are prepared in 100 mM potassium phosphate buffer, pH 8.0. The fluorescence of each solution is read with excitation at 490 nm. Sequential additions of 0.5 mg/mL rabbit polyclonal anti-fluorescein IgG (H+L) fraction (Molecular Probes, Inc.) are added and the fluorescence measurements are repeated.

[6] = approximate, from fluorescence emission versus pH (FIG. 3), in water
[7] = antibody volume 0 μL, pH 8.0, excitation 490 nm
[8] = antibody volume 2 μL of 0.5 mg/mL, pH 8.0
[9] = antibody volume 4 μL of 0.5 mg/mL, pH 8.0
[10] = antibody volume 6 μL of 0.5 mg/mL, pH 8.0
[11] = antibody volume 8 μL of 0.5 mg/mL, pH 8.0
[12] = antibody volume 10 μL of 0.5 mg/mL, pH 8.0
[13] = antibody volume 12 μL of 0.5 mg/mL, pH 8.0
[14] = antibody volume 15 μL of 0.5 mg/mL, pH 8.0
[15] = given in the synthesis examples

Compound	Abs. [1] [nm]	Em. [1] [nm]	ε × 10^-3 [1] [cm^-1 M^-1]	Quantum Yield [1]	photodecomposition [2] [%]	pKa ([3]; Table 1)	also measured
5-(and-6)-carboxy-2',4',5',7'-tetrafluorofluorescein [Compound 40]	510	533	81.3	0.59	6.0	3.7	
5-(and-6)-carboxy-2',7'-dichlorofluorescein [reference compound]	504	530	80.3	0.75			
5-(and-6)-carboxy-2',7'-difluorofluorescein	492	516	85.9	0.92	9.0	4.8	
5-(and-6)-carboxy-2'-fluororhodol [Compound 55]	495	518			4.0	3.8	
5-(and-6)-carboxy-4',5'-difluorofluorescein [Compound 41]	510	534	84.2	0.43	11	5.2	
5-(and-6)-carboxy-7'-fluororhodol	494	519			4.0	5.2	
5-(and-6)-carboxy-N,N-dimethyl-2'-fluororhodol	519	553			5.0	4.2	
5-(and-6)-carboxy-N,N-dimethyl-7'-fluororhodol	520	546			5.0	5.3	
5-(and-6)-carboxy-N,N-dimethylrhodol [reference compound]	518	544		0.26			
5-(and-6)-carboxyrhodol [reference compound]	494	521	69.6	0.89	4.0	5.6	
O=C1OC2(c3cc(Cl)c(O)cc3Oc3cc(O)c(Cl)cc32)c2ccccc21 [2',7'-dichlorofluorescein, reference compound]						5.1	pKa [3, 6]: ~ 5.1
O=C(O)c1ccc(-c2c3cc(F)c(=O)cc-3oc3cc(O)c(F)cc23)c(S(=O)(=O)O)c1 [9-(4-carboxy-2-sulfo)-6-hydroxy-2,7-difluoro-3H-xanthene-3-one]	497	517	83.8	0.92	7.3	4.3	
O=C1OC2(c3cc(F)c(O)cc3Oc3cc(O)c(F)cc32)c2c(F)c(F)c(F)c(F)c21 [Compound 26, 2',4,5,6,7,7'-hexafluorofluorescein]	508	527	81.2	0.96	4.0	4.8	
CC(=O)Oc1cc2c(cc1Cl)C1(OC(=O)c3c(F)c(F)c(F)c(F)c31)c1cc(Cl)c(OC(C)=O)cc1O2 [Compound 28, 2',7'-dichloro4,5,6,7-tetrafluorofluorescein Diacetate]							Mean Fluorescence intensity of labeled cells ([4]; 100 μM verapamil): 110; Mean Fluorescence intensity of labeled cells ([4]; 1 mM Probenecid): 80.6; Mean Fluorescence intensity of labeled cells ([4]; No drug): 15.6
O=C1OC2(c3cc(F)c(O)cc3Oc3cc(O)c(F)cc32)c2ccccc21 [Compound 29, 2',7'-difluorofluorescein]	490	513	84.7	0.97	8.0	4.7	Fluorescence Intensity [5, 7]: 100%; Fluorescence Intensity [5, 8]: 83.6%; Fluorescence Intensity [5, 9]: 67.3%; Fluorescence Intensity [5, 10]: 51.9%; Fluorescence Intensity [5, 11]: 36.5%; Fluorescence Intensity [5, 12]: 23.8%; Fluorescence Intensity [5, 13]: 13.4%; Fluorescence Intensity [5, 14]: 6.3%; pKa [3, 6]: ~ 4.7
O=C1OC2(c3cc(Cl)c(O)cc3Oc3cc(O)c(Cl)cc32)c2c(F)c(F)c(F)c(F)c21 [Compound 37, 2',7'-dichloro4,5,6,7-tetrafluorofluorescein]	520	538	88.5	0.80	3.0	4.2	
O=c1c(F)c2oc3c(F)c(O)c(F)c(F)c3c(-c3c(F)c(F)c(F)c(F)c3F)c-2c(F)c1F [Compound 50, 1,2,4,5,7,8-hexafluoro-6-hydroxy-9-pentafluorophenylxanthen-3-one]				0.11	4.0	2.8	
CN(C)c1ccc2c(c1)Oc1cc(O)c(F)cc1C21OC(=O)c2ccccc21 (stereo not shown) [Compound 51, 2'-fluoro-N,N-dimethylrhodol]							pKa [3, 15]: 4.2
Nc1cc2c(cc1F)C1(OC(=O)c3ccccc31)c1ccc(O)cc1O2 (stereo not shown) [Compound 52, 7'-fluororhodol]							pKa [3, 15]: 5.2
CN(C)c1cc2c(cc1F)C1(OC(=O)c3ccccc31)c1ccc(O)cc1O2 (stereo not shown) [Compound 53, N,N-dimethyl-7'-fluororhodol]							pKa [3, 15]: 5.3
Nc1ccc2c(c1)Oc1cc(O)c(F)cc1C21OC(=O)c2ccccc21 (stereo not shown) [Compound 54, 2'-fluororhodol]							pKa [3, 15]: 3.8
O=C(O)CSc1c(F)c(F)c2c(c1F)C1(OC2=O)c2ccc(O)cc2Oc2cc(O)ccc21 [Compound 58, 6-carboxymethylthio-4,5,7-trifluorofluorescein]	507	526	63.5	0.88	5.0	4.5	
O=C(O)CSc1c(F)c(F)c2c(c1F)C1(OC2=O)c2cc(F)c(O)cc2Oc2cc(O)c(F)cc21 [Compound 59, 6-carboxymethylthio-2',4,5,7,7'-pentafluorofluorescein]	507	526	87.5	0.86			
Nc1c(F)c(F)c2c(c1F)C1(OC2=O)c2ccc(O)cc2Oc2cc(O)ccc21 [Compound 68, 6-amino-4,5,7-trifluorofluorescein]	503	522	77.5	0.053			
[N-]=[N+]=Nc1c(F)c(F)c2c(c1F)C1(OC2=O)c2ccc(O)cc2Oc2cc(O)ccc21 [Compound 78, 6-azido-4,5,7-trifluorofluorescein]	507	527	79.9	0.92			
O=C1OC2(c3ccc(O)cc3Oc3cc(O)ccc32)c2ccccc21 [fluorescein, reference compound]	490	514	82.2	0.92	17	6.5	Fluorescence Intensity [5, 7]: 100%; Fluorescence Intensity [5, 8]: 84.6%; Fluorescence Intensity [5, 9]: 68.8%; Fluorescence Intensity [5, 10]: 54.3%; Fluorescence Intensity [5, 11]: 38.5%; Fluorescence Intensity [5, 12]: 22.9%; Fluorescence Intensity [5, 13]: 11.7%; Fluorescence Intensity [5, 14]: 4.4%
